As a reminder, the IC50 is the concentration that gives 50% inhibition. Low readings indicate greater potency in that assay, high ones weaker potency in that assay. As a reminder, the MIC is the lowest concentration found to suppress growth.

IC50 and MIC data for six compounds are collected here from patent publication US11208387B2, “Macrocyclic broad spectrum antibiotics” (Genentech, Inc., priority 2019, dated 2021).

Experiment [1] has as its system isolated liver mitochondria. The experiment can be described thus: Mitochondrial oxygen consumption rate (OCR) assay. The class given is biochemical, Sprague-Dawley rats. The note with it: isolated rat liver mitochondria, state 3 (S3) respiration. The text has this: Male Sprague-Dawley rats (8-10 weeks of age) were euthanized with an overdose of carbon dioxide. The liver was rapidly excised and placed in ice-cold phosphate-buffered saline (PBS) before isolation process. Mitochondria were isolated using the MitoCheck® Mitochondrial Isolation Kit (Cayman Chemical #701010, Ann Arbor, Mich.) according to manufacturer's instructions. In brief, approximately 10-14 grams of liver tissues were finely minced using a pair of scissors, and washed repeatedly with ice-cold PBS, followed by Mito Isolation Buffer. The minced tissues were homogenized with 30 ml Mito Homogenization Buffer in 40 ml dounce homogenizer and a smooth glass grinder. The homogenate was split into two clean 30 ml polycarbonate tubes and centrifuged at 1,000×g, 4° C., for 3 minutes. The supernatant was subjected to further centrifugation at 10,000×g, 4° C., for 10 minutes. The supernatant was discarded and mitochondrial pellet was suspended in Mito Isolation Buffer using a glass stirring rod and stored on ice until use. Protein concentration of mitochondria was determined using a bicinchoninic acid protein assay kit (Thermo Scientific, Waltham, Mass.).
Oxygen consumption was monitored as essentially described by Will et al., “Analysis of mitochondrial function using phosphorescent oxygen-sensitive probes,” Nature Protocols Vol. 1(6) (2006) 2563. Briefly, isolated mitochondria (50 μg mitochondrial proteins/state 3 (S3) of mitochondrial respiration for inhibitor identification, 100 μg/S2 for uncoupler identification) were incubated with compounds in 25 μl of Measurement Buffer (MB: 250 mM sucrose, 15 mM KCl, 1 mM EGTA, 5 mM MgCl2, 30 mM K2HPO4, pH 7.4) including 1% DMSO on ice for 1 hour, then mixed with 25 μl of substrate mixture including an oxygen-sensitive phosphorescent dye (MitoXpress Xtra, Agilent, Santa Clara, Calif.), glutamate (25 mM, G1626, Sigma, St. Louis, Mo.), malate (25 mM, M6413, Sigma), ADP (3.3 mM, A2754, Sigma, only for S3 of mitochondrial respiration), Fatty acid free BSA (0.1%, A0281, Sigma), and a complex II-specific inhibitor TTFA (2 μM, T27006, Sigma for the assessment of complex I-mitochondrial respiration with glutamate/malate) in a black wall/clear bottom 384-well plate. The mixtures were covered with HS mineral oil (Agilent) using the Viaflo 384-channel pipette (Integra, Hudson, N.H.). Oxygen consumption was measured for 30 min at 30° C. using a spectrofluorimeter (FLUOstar Omega, BMG Labtech, Cary, N.C.). In S3, DMSO vehicle control and antimycin A (10 μM) were used to define 0% and 100% inhibition. In S2, DMSO vehicle and FCCP (0.5-1 μM) was used to define 0% and 100% uncoupling, respectively. Area under curve typically in a range of 0-12 min (S3) or 0-24 min (S2) was used for calculations. IC50 or UC50 (uncoupling concentration), a concentration that causes 50% of inhibition or maximal (uncoupling) activation of oxygen consumption, was used to evaluate experimental quality. Data were presented as μM (per 50 μg (S3) or 100 μg (S2) mitochondrial proteins). Compounds with IC50: <100 μM (S3) and/or UC50: <200 μM (S2) were considered as high-risk on mitochondrial toxicity. Compounds with 25-50% changes in inhibition and/or uncoupling were categorized as medium-risk, since compounds with >25% changes are considered as responders.
Toxicity associated with mitochondrial dysfunction has presented a problem for promising potential antibiotics as we as other types of therapeutics. The mitochondrial oxygen consumption rate (OCR) assay is considered a reliable indicator of potential internal organ toxicity issues that may occur with powerful antibiotics. The carboxylate compounds of the invention show unexpected lower toxicity than prior art “glycine nitrile” arylomycin analogs (see, e.g., WO 2018/149419) in the mitochondrial oxygen consumption rate (OCR) assay.

The subject of experiment [2] is Escherichia coli strain ATCC 25922. The experiment can be described thus: Serum MIC, broth micro-dilution. The class given is cell-based. The note with it: Escherichia coli, read-out: E. coli 25922 Serum MIC. In a few lines:
(§1)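 CLSI broth micro-dilution MIC run in 50% v/v cation-adjusted Mueller Hinton II broth plus 50% v/v mouse serum. Compounds were serially 2-fold diluted (10 concentrations) from a top concentration of 64, 4, 0.5 or 0.13 μg/mL; inoculum at final OD600 0.0005, incubated 35° C for 22 hours.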

Experiment [3] has as its system Pseudomonas aeruginosa PA01. The experiment can be described thus: Serum MIC, broth micro-dilution. Format: cell-based. Conditions: Pseudomonas aeruginosa, read-out: P. aeruginosa 01 Serum MIC. In a few lines:
as §1
In general terms: In broth dilution the organism is exposed to a series of concentrations in liquid medium.

Experiment [4] deals with Acinetobacter baumannii ATCC 17978. The experiment can be described thus: Serum MIC, broth micro-dilution. Format: cell-based. Conditions: Acinetobacter baumannii. In a few lines: as §1
The test system of experiment [5] is Klebsiella pneumoniae ATCC 700603. The experiment can be described thus: Serum MIC, broth micro-dilution. The note with it: Klebsiella pneumoniae. Format: cell-based. The essentials: as §1
The mark [6] stands for this setting: ATCC25922, 50% v/v mouse serum in Mueller Hinton II cation adjusted Broth, 35° C., 22 hours, Table 4.
[7] abbreviates: PA01, 50% v/v mouse serum in Mueller Hinton II cation adjusted Broth, 35° C., 22 hours, Table 4.
Setting [8] is: ATCC17978, 50% v/v mouse serum in Mueller Hinton II cation adjusted Broth, 35° C., 22 hours, Table 4, read-out: A. baumanii 17978 Serum MIC.
Setting [9] is: ATCC17978, 50% v/v mouse serum in Mueller Hinton II cation adjusted Broth, 35° C., 22 hours, Table 5, read-out: Acinetobacter baumanii 17978 Serum MIC.
[10] abbreviates: ATCC700603, 50% v/v mouse serum in Mueller Hinton II cation adjusted Broth, 35° C., 22 hours, Table 4, read-out: K pneumoniae 700603 Serum MIC.

≈ marks a conversion by molar mass, not a printed value. Like-named read-outs stand apart in the source and are kept apart here.

Regarding `Cc1nc(-c2ccc(C(C)(C)C)cc2)nc(C)c1C(=O)N[C@@H](CCN)C(=O)N(C)[C@@H]1C(=O)N[C@@H](C)C(=O)N[C@H](C(=O)NCC#N)Cc2ccc(O)c(c2)-c2cc1ccc2OCCN` (racemic) [Example 254], the IC50 in experiment [1] (compounds of Table 1, Table 6) amounted to 20 µM. For the same compound, the MIC was found to be 0.19 µM (≈ 0.164 µg/mL) in experiment [2] (ATCC25922, 50% v/v mouse serum, compounds of Table 1, Table 7); 13 µM (≈ 11.2 µg/mL) in experiment [3] (PA01, 50% v/v mouse serum, compounds of Table 1, Table 7); 9.3 µM (≈ 8.01 µg/mL) in experiment [4] (ATCC17978, 50% v/v mouse serum, compounds of Table 1, Table 7, read-out: A. baumanii 17978 Serum MIC); 0.73 µM (≈ 0.629 µg/mL) in experiment [5] (ATCC700603, 50% v/v mouse serum, compounds of Table 1, Table 7, read-out: K. pneumoniae 700603 Serum MIC).
`Cc1nc(-c2ccc(C(C)(C)C)cc2F)nc(N)c1C(=O)N[C@@H](CNS(N)(=O)=O)C(=O)N(C)[C@@H]1C(=O)N[C@@H](C)C(=O)N[C@H](C(=O)O)Cc2ccc(OC[C@H](O)CN)c(c2)-c2cc1cc(OC[C@H](O)CN)c2O` [Example 62, (8S,11S,14S)-14-[[(2S)-2-[[4-amino-2-(4-tert-butyl-2-fluoro-phenyl)-6-methyl-pyrimidine-5-carbonyl]-amino]-3-(sulfamoyl-amino)propanoyl]-methyl-amino]-3,17-bis[(2R)-3-amino-2-hydroxy-propoxy]-18-hydroxy-11-methyl-10,13-dioxo-9,12-diazatricyclo-[13.3.1.12,6]icosa-1(18),2(20),3,5,15(19), 16-hexaene-8-carboxylic acid] displayed an IC50 in experiment [1] (glutamate/malate, Table 3) of more than 100 µM. Also, the MIC in experiment [2] (setting [6]) stood at 1 µM (≈ 1.03 µg/mL); in experiment [3] (setting [7]), 6 µM (≈ 6.16 µg/mL); in experiment [4] (setting [8]) it was 16 µM (≈ 16.4 µg/mL); in experiment [4] (setting [9]), 16 µM (≈ 16.4 µg/mL); in experiment [5] (setting [10]), 1 µM (≈ 1.03 µg/mL).
On to `Cc1nc(-c2ccc3c(c2)CCC3(C)C)nc(N)c1C(=O)N[C@@H](CNS(N)(=O)=O)C(=O)N(C)[C@@H]1C(=O)N[C@@H](C)C(=O)N[C@H](C(=O)O)Cc2ccc(OC[C@H](O)CN)c(c2)-c2cc1cc(OC[C@H](O)CN)c2O` [Example 66, (8S,11S,14S)-14-[[(2S)-2-[[4-amino-2-(1,1-dimethylindan-5-yl)-6-methyl-pyrimidine-5-carbonyl]-amino]-3-(sulfamoyl-amino)propanoyl]-methyl-amino]-3,17-bis[(2R)-3-amino-2-hydroxy-propoxy]-18-hydroxy-11-methyl-10,13-dioxo-9,12-diazatricyclo-[13.3.1.12,6]icosa-1(18),2(20),3,5,15(19), 16-hexaene-8-carboxylic acid], for which half-maximal inhibition in experiment [1] (glutamate/malate, Table 3) (IC50) was put at 69 µM. The MIC in experiment [2] (setting [6]) was 0.75 µM (≈ 0.765 µg/mL); in experiment [3] (setting [7]) it was 6 µM (≈ 6.12 µg/mL); in experiment [4] (setting [8]), 12 µM (≈ 12.2 µg/mL); in experiment [4] (setting [9]) it was 12 µM (≈ 12.2 µg/mL); in experiment [5] (setting [10]) it was 0.75 µM (≈ 0.765 µg/mL).
As to `Cc1nc(-c2ccc(C(C)(C)C)cc2)nc(C)c1C(=O)N[C@@H](CN)C(=O)N(C)[C@@H]1C(=O)N[C@@H](C)C(=O)N[C@H](C(=O)O)Cc2ccc(OC[C@H](O)CN)c(c2)-c2cc1cc(OC[C@H](O)CN)c2O` [Example 30, (8S,11S,14S)-18-hydroxy-11-methyl-14-[methyl-[(2S)-3-amino-2-[[2-(4-tert-butylphenyl)-4,6-dimethyl-pyrimidine-5-carbonyl]amino]-propanoyl]amino]-10,13-dioxo-3,17-bis[(2R)-3-amino-2-hydroxy-propoxy]-9,12-diazatricyclo-[13.3.1.12,6]icosa-1(18),2(20),3,5,15(19), 16-hexaene-8-carboxylic acid], the IC50 in experiment [1] (glutamate/malate, Table 3) was more than 250 µM. Further, the MIC in experiment [2] (setting [6]) came to 1 µM (≈ 0.928 µg/mL); in experiment [3] (setting [7]), 16 µM (≈ 14.8 µg/mL); in experiment [4] (setting [8]) it was 32 µM (≈ 29.7 µg/mL); in experiment [4] (setting [9]), 32 µM (≈ 29.7 µg/mL); in experiment [5] (setting [10]), 0.75 µM (≈ 0.696 µg/mL).
The compound `Cc1nc(-c2ccc(C(C)(C)C)cc2)nc(N)c1C(=O)N[C@@H](CCN)C(=O)N(C)[C@@H]1C(=O)N[C@@H](C)C(=O)N[C@H](C(=O)O)Cc2ccc(OC[C@H](O)CN)c(c2)-c2cc1cc(OC[C@H](O)CN)c2O` [Example 24, (8S,11S,14S)-18-hydroxy-11-methyl-14-[methyl-[(2S)-4-amino-2-[[4-amino-2-(4-tert-butylphenyl)-6-methyl-pyrimidine-5-carbonyl]amino]-butanoyl]amino]-10,13-dioxo-3,17-bis[(2R)-3-amino-2-hydroxy-propoxy]-9,12-diazatricyclo-[13.3.1.12,6]icosa-1(18),2(20),3,5,15(19), 16-hexaene-8-carboxylic acid] yielded an IC50 in experiment [1] (glutamate/malate, Table 3) of more than 200 µM. Besides, the MIC in experiment [2] (setting [6]) came out at 0.5 µM (≈ 0.472 µg/mL); in experiment [3] (setting [7]), 16 µM (≈ 15.1 µg/mL); in experiment [4] (setting [8]) it was 16 µM (≈ 15.1 µg/mL); in experiment [4] (setting [9]), 16 µM (≈ 15.1 µg/mL); in experiment [5] (setting [10]) it was 0.25 µM (≈ 0.236 µg/mL).
Regarding `Cc1nc(-c2ccc(OCCC(C)(C)C)cc2)ncc1C(=O)N[C@@H](CNS(N)(=O)=O)C(=O)N(C)[C@@H]1C(=O)N[C@@H](C)C(=O)N[C@H](C(=O)O)Cc2ccc(OC[C@H](O)CN)c(c2)-c2cc1cc(OC[C@H](O)CN)c2O` [Example 16, (8S,11S,14S)-18-hydroxy-11-methyl-14-[methyl-[(2S)-2-[[2-[4-(3,3-dimethyl-butoxy)phenyl]-4-methyl-pyrimidine-5-carbonyl]amino]-3-(sulfamoylamino)-propanoyl]amino]-10,13-dioxo-3,17-bis[(2R)-3-amino-2-hydroxy-propoxy]-9,12-diazatricyclo-[13.3.1.12,6]icosa-1(18),2(20),3,5,15(19), 16-hexaene-8-carboxylic acid], half-maximal inhibition in experiment [1] (glutamate/malate, Table 3) (IC50) required 33 µM. Also, the MIC turned out to be 0.44 µM (≈ 0.456 µg/mL) in experiment [2] (ATCC25922, 22 h); 6 µM (≈ 6.22 µg/mL) in experiment [3] (PA01, 22 h); 12 µM (≈ 12.4 µg/mL) in experiment [4] (ATCC17978, 22 h, read-out: A. baumanii 17978 Serum MIC); 12 µM (≈ 12.4 µg/mL) in experiment [4] (ATCC17978, 22 h, read-out: Acinetobacter baumanii 17978 Serum MIC); 0.63 µM (≈ 0.653 µg/mL) in experiment [5] (ATCC700603, 22 h, read-out: K pneumoniae 700603 Serum MIC).
